Measured values: patent US20130190403A1, “ADMINISTRATION OF INTRAVENOUS IBUPROFEN TO TRAUMA PATIENTS” (Cumberland Pharmaceuticals Inc., priority 2012, published 2013)

System: traumatic rib fracture patients
Test: Retrospective review of traumatic rib fracture patients: intravenous ibuprofen plus narcotics versus narcotics alone
Format: in vivo, human

CC(C)Cc1ccc(C(C)C(=O)O)cc1 (stereo not drawn) [ibuprofen, 2-(4-isobutylphenyl) propionic acid]
daily narcotic requirement, Treatment Group versus Control Group (Day 1 or Day 2): did not differ
complications associated with ibuprofen therapy (Treatment group): no significant complications
daily narcotic requirement, Treatment Group versus Control Group (each of Days 3 through 7 (p<0.05)): significantly decreased
